Data on 23 compounds can be found in ChEMBL document CHEMBL1201862, “PubChem BioAssay data set” (2004).

The source made the active and inactive calls. Cut-off read from the data, not from the text of the source, for most assays here: actives have a measured EC50 and inactives only a lower limit.

Broadly, the AC50 is the concentration at which the activity in the assay is half-maximal. What is called CC50 is the concentration giving 50% cytotoxicity.

Test [1] is described as follows: Luminescence Cell-Based Dose Confirmation HTS to Identify Inhibitors of Platelet Dense Granule Release. [Related pubchem assays: 1663 (Primary HTS), 1678 (Summary of Project)]. The test is classed as functional.
The target of test [2] is Luciferin 4-monooxygenase (Photinus pyralis, UniProt P08659). Nature of the test: inhibition of purified Photinus pyralis luciferase – biochemical, luminescence, dose response (AID 1891).
Luciferin 4-monooxygenase, sequence (P08659 whole entry): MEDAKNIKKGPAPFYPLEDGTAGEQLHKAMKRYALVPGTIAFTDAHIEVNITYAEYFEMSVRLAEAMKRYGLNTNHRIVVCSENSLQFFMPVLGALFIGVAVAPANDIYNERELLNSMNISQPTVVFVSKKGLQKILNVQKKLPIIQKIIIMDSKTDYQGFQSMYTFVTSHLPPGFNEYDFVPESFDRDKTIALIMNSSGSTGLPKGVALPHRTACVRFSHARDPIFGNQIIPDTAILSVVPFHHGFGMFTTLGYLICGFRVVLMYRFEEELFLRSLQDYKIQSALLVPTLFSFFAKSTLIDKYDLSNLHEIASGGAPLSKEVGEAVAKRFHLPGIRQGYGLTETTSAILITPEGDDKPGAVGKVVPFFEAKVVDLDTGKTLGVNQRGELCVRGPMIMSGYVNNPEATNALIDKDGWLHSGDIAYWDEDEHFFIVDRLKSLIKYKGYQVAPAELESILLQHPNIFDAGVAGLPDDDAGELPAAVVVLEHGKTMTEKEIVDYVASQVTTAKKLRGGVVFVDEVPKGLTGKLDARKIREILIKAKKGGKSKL
A further test addresses Cytochrome P450 3A4 (Homo sapiens, UniProt P08684).
In another test the target is T1, Cytochrome P450 1A2 (Homo sapiens, UniProt P05177).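 Note: PubChem cytochrome P450 panel assay, CYP1A2 panel member.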
T1 sequence (P05177 whole entry): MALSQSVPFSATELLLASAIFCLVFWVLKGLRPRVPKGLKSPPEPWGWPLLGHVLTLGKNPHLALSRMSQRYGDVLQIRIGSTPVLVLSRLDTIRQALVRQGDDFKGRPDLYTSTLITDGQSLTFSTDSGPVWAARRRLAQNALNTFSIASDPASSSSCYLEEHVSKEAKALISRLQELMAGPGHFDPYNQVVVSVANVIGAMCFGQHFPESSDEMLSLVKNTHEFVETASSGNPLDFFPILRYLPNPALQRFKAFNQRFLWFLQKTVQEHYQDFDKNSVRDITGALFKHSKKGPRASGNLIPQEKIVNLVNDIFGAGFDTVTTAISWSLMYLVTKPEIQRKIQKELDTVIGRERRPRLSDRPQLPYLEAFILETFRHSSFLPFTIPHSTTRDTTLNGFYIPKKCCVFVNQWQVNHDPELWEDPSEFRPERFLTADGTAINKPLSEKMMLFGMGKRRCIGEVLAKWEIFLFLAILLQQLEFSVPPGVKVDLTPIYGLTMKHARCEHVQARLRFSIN

Test [3] concerns the target FAD-linked sulfhydryl oxidase ALR (Homo sapiens, UniProt P55789). Nature of the test: ALR-catalysed DTT oxidation blockers – biochemical, H2O2 detection, luminescence, cherry-pick, dose response (AID 493248).
The next test deals with Genome polyprotein (dengue virus type 2, UniProt P29990). Nature of the test: flavivirus cap methylation enzyme inhibition – biochemical, confirmation dose response, primary screen (AID 588689). The test is classed as functional.
Genome polyprotein, sequence (P29990 2492-3391 limits assumed): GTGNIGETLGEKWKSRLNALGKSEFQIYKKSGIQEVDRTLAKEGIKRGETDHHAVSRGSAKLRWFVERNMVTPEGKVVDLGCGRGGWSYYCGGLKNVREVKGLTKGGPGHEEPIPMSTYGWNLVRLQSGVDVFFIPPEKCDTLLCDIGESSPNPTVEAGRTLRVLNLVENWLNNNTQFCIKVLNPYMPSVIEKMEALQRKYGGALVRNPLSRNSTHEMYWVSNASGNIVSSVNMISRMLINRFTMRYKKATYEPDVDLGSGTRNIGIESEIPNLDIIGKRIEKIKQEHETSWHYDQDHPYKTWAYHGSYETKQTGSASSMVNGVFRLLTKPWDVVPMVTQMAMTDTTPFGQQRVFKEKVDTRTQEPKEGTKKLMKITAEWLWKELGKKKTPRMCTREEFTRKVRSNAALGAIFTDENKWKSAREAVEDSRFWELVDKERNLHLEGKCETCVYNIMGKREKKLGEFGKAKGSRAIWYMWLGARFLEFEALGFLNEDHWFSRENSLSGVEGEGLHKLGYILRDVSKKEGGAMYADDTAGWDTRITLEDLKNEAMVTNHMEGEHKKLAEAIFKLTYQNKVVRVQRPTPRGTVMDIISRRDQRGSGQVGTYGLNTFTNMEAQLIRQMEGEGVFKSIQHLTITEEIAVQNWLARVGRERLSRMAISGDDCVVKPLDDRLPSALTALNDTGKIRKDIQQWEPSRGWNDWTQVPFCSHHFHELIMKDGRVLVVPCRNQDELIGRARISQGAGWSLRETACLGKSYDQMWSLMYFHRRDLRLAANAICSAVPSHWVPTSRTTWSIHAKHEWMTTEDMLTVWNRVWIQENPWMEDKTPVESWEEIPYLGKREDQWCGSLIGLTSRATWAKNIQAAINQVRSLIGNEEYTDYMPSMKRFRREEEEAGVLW
Test [4] is described as follows: P. falciparum Dd2 growth inhibitors, dose response, SYBR Green, cherry-picked samples (AID 1159567). It is filed as functional, cell-based.
The nature of test [5]: DRD fibroblast viability loss – cell-based, non-viral oncogenic, luminescence, dose response (AID 1934). The conditions noted are these: Homo sapiens. It is filed as functional.
The test system of test [6] is BJ. Nature of the test: BJ-TERT fibroblast viability loss – cell-based, RAS-independent, luminescence, dose response (AID 1933). It is filed as functional. The conditions noted are these: Homo sapiens.
Test [7] has as its system BJ. Nature of the test: cells. The test is classed as functional, cell-based. The conditions noted are these: Homo sapiens.
Test [8] relates to BJ. Nature of the test: BJ-TERT-LT-ST fibroblast viability loss – cell-based, RAS-independent, luminescence, dose response (AID 1935).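 Note: BJ fibroblasts immortalized with TERT plus LT and ST oncogenes.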 The test is classed as functional. The conditions noted are these: Homo sapiens.
The target of test [9] is T2, Zinc finger protein mex-5 (Caenorhabditis elegans, UniProt Q9XUB2).
T2 sequence (Q9XUB2 whole entry): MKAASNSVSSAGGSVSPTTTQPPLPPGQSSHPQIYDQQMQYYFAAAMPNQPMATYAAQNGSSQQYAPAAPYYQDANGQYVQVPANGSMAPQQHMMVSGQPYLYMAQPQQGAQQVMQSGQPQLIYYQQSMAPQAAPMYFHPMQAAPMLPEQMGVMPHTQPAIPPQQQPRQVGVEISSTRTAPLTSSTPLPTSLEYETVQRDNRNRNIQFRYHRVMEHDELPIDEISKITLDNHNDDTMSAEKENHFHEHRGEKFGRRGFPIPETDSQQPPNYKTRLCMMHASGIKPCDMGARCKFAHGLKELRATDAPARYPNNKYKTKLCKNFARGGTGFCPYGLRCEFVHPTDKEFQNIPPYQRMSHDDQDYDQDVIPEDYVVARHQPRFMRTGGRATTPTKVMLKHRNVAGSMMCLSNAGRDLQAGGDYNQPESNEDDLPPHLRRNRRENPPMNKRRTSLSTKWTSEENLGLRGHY
Nature of the test: potency of MEX-5 RNA-binding blockers – biochemical, C. elegans, fluorescence polarization, dose response (AID 1960). (In general: Fluorescence polarisation rises when a labelled molecule tumbles more slowly, as on binding a larger partner.)

The target in test [10] is T3, RNA-binding protein pos-1 (Caenorhabditis elegans, UniProt G5EF15).
T3 sequence (G5EF15 whole entry): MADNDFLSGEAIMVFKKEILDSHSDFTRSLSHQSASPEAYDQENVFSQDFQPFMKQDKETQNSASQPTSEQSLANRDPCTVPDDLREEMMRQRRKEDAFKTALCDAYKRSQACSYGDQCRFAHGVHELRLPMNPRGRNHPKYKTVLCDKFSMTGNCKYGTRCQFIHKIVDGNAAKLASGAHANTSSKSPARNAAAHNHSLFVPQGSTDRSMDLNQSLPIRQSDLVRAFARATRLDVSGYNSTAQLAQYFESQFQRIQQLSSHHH
Nature of the test: disruptors of C. elegans POS-1 RNA interaction – biochemical, fluorescence polarization, dose response (AID 1964).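 Note: purified POS-1 fused to maltose binding protein made in E. coli; potency of compounds blocking POS-1 binding to fluorescent RNA.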

Test [11] concerns the target T4, Corticotropin-releasing factor receptor 2/Corticotropin-releasing factor-binding protein (Homo sapiens, UniProt P24387+Q13324).
T4 sequence (Q13324 whole entry): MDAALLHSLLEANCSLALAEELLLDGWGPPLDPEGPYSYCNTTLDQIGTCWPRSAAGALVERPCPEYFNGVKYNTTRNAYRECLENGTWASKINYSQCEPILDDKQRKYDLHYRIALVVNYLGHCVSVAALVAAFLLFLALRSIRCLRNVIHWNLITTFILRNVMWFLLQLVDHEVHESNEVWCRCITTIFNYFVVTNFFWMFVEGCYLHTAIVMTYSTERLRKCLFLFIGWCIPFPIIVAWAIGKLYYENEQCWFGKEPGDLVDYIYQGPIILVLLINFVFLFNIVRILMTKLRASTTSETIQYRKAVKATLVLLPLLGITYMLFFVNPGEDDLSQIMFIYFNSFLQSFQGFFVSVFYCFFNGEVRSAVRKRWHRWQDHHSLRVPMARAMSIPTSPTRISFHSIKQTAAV
T4 sequence (P24387 whole entry): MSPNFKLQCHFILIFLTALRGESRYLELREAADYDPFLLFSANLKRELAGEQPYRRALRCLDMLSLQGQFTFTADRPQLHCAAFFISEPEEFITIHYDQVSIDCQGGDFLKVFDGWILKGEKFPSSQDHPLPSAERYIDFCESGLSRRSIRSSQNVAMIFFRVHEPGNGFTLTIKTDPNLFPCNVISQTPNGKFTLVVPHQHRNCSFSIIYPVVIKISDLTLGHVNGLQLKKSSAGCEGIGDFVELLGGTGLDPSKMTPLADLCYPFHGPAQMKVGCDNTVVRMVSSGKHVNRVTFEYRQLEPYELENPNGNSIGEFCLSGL
Nature of the test: Dose Response confirmation of uHTS hits for small molecule antagonists of the CRF-binding protein and CRF-R2 receptor complex. It is filed as functional. The conditions noted are these: read-out: IC50_Mean.

The target of test [12] is T4, Corticotropin-releasing factor receptor 2/Corticotropin-releasing factor-binding protein. Nature of the test: activators of CRF receptor 2 with binding protein – uHTS hits, confirmation (AID 602473). The conditions noted are these: read-out: EC50_Mean. The test is classed as functional.
Test [13] can be described thus: Luminescence Cell-Based Dose Retest to Confirm Inhibitors of Cancer Stem Cells. [Related pubchem assays (depositor defined):AID2717, AID2721]. The test is classed as functional. The settings on record: Homo sapiens.
Test [14] in a line: viability of uninfected HEp-2 cells – cell-based, HTS, cytotoxicity control for RSV inhibitor project, dose response (AID 2410). The settings on record: human respiratory syncytial virus. It is filed as functional.

FAD-linked sulfhydryl oxidase ALR, sequence (P55789 whole entry): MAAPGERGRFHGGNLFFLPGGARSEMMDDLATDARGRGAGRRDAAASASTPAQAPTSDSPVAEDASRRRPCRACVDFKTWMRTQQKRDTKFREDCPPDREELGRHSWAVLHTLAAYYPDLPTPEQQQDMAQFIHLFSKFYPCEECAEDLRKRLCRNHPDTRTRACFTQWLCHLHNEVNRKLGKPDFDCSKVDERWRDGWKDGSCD
Cytochrome P450 3A4, sequence (P08684 whole entry): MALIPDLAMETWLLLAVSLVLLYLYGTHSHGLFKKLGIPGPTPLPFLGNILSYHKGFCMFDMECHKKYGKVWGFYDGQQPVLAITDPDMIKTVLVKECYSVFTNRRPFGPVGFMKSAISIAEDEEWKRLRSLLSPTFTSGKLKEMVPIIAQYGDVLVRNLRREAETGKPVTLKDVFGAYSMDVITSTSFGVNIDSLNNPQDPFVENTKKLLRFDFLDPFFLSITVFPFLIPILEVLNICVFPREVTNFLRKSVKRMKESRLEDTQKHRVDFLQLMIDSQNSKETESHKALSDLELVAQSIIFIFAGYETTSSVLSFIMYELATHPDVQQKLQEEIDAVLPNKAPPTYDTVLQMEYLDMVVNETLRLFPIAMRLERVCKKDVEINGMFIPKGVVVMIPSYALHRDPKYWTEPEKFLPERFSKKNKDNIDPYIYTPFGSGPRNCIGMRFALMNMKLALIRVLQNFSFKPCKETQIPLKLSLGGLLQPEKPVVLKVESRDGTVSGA

As to `C[C@H](NC1=NS(=O)(=O)c2ccccc21)C(=O)OCc1cc([N+](=O)[O-])cc2c1OCOC2`, the EC50 in test [1] and in test [2] was > 112 µM (not active) each time.

Consider `CCOC(=O)C1=C(O)/C(=C/c2cc(OC)c(OC)c(OC)c2)N=C1C`, for which the figures for the AC50 on Cytochrome P450 3A4 and at Cytochrome P450 1A2 were 17.8 µM (inconclusive) and 14.1 µM (inconclusive), respectively. The EC50 in test [1] and in test [2] was > 112 µM (not active) each time.

In the case of `CCc1nnc2n1N=C(c1ccc([N+](=O)[O-])cc1)CS2`, the AC50 in test [3] is 6.01 µM (active).

With `COC(=O)CC1=NN(c2ccccc2)C(=O)/C1=C\c1ccc(OC)cc1`, the IC50 at Genome polyprotein is 33.3 µM (active).

Turning to `O=C(NCC1CCCO1)c1cccc(NC(=O)c2ccc(Br)cc2)c1` (stereo not drawn), the EC50 in test [1] and in [2] was > 112 µM (not active) in each case.

Turning to `CCOC(=O)N1CCN(C(=O)CNC2CCCCCCC2)CC1`, the EC50 is 16.7 µM (active) in test [1] and > 112 µM (not active) in [2].

For `Cc1ccc(CN2CCN(/N=C/c3ccc(O)c(O)c3)CC2)cc1`, in [3], the AC50 was 3.11 µM (active).

In the case of `COc1cc(/C=N/NC(=O)c2cccc(S(=O)(=O)N3CCCC3)c2)cc(OC)c1O`, the AC50 in test [3] is 0.039 µM (active).

For the compound `COc1ccccc1S(=O)(=O)N1[C@@H]2CNC[C@H]1[C@H]2c1ccc(-c2ccccc2C)cc1`, the AC50 in [4] was 27.7 µM (active).

Take `CSC1=C(C#N)C(=O)NC(c2ccccc2O)S1` (stereo not drawn): the IC50 at Genome polyprotein was 45.2 µM (active).

As to `CCC(C)NC(=O)c1cc(-c2ccccc2O)on1` (stereo not drawn), the EC50 in test [1] and in [2] was > 112 µM (not active) throughout.

Turning to `O=C(NC1CCCCC1)N(C1=NCCCCC1)c1ccc(Br)cc1`, the EC50 in [1] and in [2] was > 112 µM (not active) throughout.

For the compound `COc1ccc(CCN2C(=O)c3ccccc3NC2c2cc(Cl)c(O)c(OC)c2)cc1` (stereo not drawn), the EC50 was 12.9 µM (active) in test [5], 11.3 µM (inconclusive) in the test with BJ [6], > 150 µM (inconclusive) in the test on BJ [7] and 25.7 µM (inconclusive) in the test on BJ [8].

Take `COc1cc(/C=N/N2C(C)CCCC2C)cc(OC)c1O` (stereo not drawn): the AC50 in test [3] is 1.1 µM (active).

On to `CC1CCCCC1NC(=O)c1ccc(S(=O)(=O)NNC(=O)c2ccncc2)cc1` (stereo not drawn), for which the AC50 in test [3] is 2.99 µM (active).

Turning to `CN(C)c1ccc(NC(=O)CCn2c(=S)oc3ccccc32)cc1`, the concentration at half-maximal activity (AC50) in test [3] was 14.6 µM (active).

As for `CC1(C)CC(=O)C2=C(C1)OC(/N=C/N1CCCC1)=C(C#N)C2c1ccccc1` (stereo not drawn), the results for the EC50 in test [9], in test [10] and in test [12] were > 300 µM (not active), > 300 µM (not active) and > 53 µM (inactive), respectively. The IC50 in [11] is > 47.1 µM (inactive).

For `Cc1cccc(C(=O)O/N=C(\N)c2ccccn2)c1`, the values for the EC50 in test [1] and in test [2] were 20.4 µM (active) and 7.75 µM (active), respectively.

With `O=C(O)c1ccccc1NS(=O)(=O)c1cccc(NS(=O)(=O)c2cc(Br)ccc2Br)c1`, the IC50 on Genome polyprotein is 28.3 µM (active).

Take `CCc1ccc([C@@H]2CC=C(C(=O)O)[C@H](c3ccc(Cl)cc3)N2S(=O)(=O)c2ccc(C)cc2)cc1`: in test [13], the concentration at half-maximal activity (AC50) is 7.7 µM (active). Further, the IC50 on Genome polyprotein is 40.3 µM (active). Also, the CC50 in [14] is 11.6 µM (active).

On to `Cc1cc(C(=O)N/N=C/c2ccc3c(c2)OCO3)c2ccccc2n1`, for which the EC50 in test [5] is 22.7 µM (active); in the test on BJ [6] it was 12.7 µM (active); in the test on BJ [7], 33.6 µM (active); in the test with BJ [8] it was 20.9 µM (active).

As for `CCOc1cc(/C=C2\C(=O)ON=C2c2ccccc2)ccc1OC`, the IC50 on Genome polyprotein is 27.1 µM (active).

With `CCC(=O)N1CCN=C1SCc1cccc(C(F)(F)F)c1`, the AC50 in test [3] is 4.38 µM (active).
